Consider 4 molecules from ChEMBL document CHEMBL3813616, “Discovery of novel 7-azaindoles as PDK1 inhibitors” (Bioorg Med Chem Lett, 2016).

Each structure is given as a SMILES string. Bounds are passed on as bounds.

Assay [1] deals with Serine/threonine-protein kinase PAK 4 (Homo sapiens) (UniProt O96013). The experiment in a line: Inhibition of human PAK4 (2 to 591 residues) assessed as enzyme activity at 1 uM using 33P ATP by radioactive filter binding assay. Set-up: scale not given: the % may be the effect or the level left.
In assay [2] the target is T1, Phosphatidylinositol 4,5-bisphosphate 3-kinase catalytic subunit delta isoform (Homo sapiens, UniProt O00329).
T1 sequence (O00329 whole entry): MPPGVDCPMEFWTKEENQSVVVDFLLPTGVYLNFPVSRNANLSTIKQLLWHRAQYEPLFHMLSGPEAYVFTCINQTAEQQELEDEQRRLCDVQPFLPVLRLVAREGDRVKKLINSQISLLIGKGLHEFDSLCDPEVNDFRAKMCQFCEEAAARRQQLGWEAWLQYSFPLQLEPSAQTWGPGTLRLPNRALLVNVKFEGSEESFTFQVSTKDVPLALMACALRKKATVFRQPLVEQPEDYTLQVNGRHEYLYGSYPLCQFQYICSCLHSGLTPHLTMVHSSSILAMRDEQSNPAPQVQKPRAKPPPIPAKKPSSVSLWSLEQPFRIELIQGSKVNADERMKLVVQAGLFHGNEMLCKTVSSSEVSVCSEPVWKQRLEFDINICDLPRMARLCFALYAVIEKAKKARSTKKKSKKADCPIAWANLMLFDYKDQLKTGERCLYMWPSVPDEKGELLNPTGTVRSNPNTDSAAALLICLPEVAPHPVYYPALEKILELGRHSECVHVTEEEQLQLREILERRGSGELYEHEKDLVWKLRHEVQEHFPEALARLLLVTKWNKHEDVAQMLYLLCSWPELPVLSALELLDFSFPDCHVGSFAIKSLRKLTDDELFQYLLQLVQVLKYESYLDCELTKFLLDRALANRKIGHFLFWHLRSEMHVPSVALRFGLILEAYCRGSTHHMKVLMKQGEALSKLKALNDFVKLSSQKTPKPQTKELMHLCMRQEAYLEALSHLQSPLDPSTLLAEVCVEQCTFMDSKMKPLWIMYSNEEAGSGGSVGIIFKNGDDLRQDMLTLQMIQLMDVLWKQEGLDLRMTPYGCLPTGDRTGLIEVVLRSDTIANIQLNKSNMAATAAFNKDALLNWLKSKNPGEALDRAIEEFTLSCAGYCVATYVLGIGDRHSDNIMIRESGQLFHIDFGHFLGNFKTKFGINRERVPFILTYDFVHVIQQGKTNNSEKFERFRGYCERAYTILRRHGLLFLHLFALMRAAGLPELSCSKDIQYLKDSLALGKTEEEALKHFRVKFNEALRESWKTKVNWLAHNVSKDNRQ
The experiment in a line: Inhibition of PI3K delta (unknown origin).

The target in assay [3] is Tyrosine-protein kinase CSK (Homo sapiens) (UniProt P41240). Nature of the assay: Inhibition of human CSK (1 to 450 residues) assessed as enzyme activity at 1 uM using 33P ATP by radioactive filter binding assay. On the set-up: scale not given: the % may be the effect or the level left.
Assay [4] concerns the target T2, Inhibitor of nuclear factor kappa-B kinase subunit epsilon (Homo sapiens) (UniProt Q14164).
T2 sequence (whole entry): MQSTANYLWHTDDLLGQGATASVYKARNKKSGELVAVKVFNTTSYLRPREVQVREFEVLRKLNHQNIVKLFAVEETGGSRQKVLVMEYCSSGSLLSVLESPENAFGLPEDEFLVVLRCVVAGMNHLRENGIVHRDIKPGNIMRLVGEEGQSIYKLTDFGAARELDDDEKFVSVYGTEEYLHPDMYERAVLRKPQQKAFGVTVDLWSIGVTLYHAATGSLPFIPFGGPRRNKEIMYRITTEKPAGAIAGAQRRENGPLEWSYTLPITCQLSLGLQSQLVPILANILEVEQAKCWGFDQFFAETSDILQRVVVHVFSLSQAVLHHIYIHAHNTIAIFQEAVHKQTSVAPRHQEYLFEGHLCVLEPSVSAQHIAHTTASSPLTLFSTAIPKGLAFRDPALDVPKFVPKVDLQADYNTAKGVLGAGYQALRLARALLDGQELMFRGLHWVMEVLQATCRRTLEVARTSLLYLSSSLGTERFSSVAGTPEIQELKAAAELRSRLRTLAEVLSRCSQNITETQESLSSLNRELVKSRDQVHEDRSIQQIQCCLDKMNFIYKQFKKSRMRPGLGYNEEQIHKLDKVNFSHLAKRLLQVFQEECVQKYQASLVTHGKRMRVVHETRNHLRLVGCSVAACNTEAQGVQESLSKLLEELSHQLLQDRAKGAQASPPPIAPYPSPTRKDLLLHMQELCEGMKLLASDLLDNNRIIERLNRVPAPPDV
The experiment in a line: Inhibition of human IKBKE (1 to 716 residues) assessed as enzyme activity at 1 uM using 33P ATP by radioactive filter binding assay. Set-up: scale not given: the % may be the effect or the level left.

The target in assay [5] is Proto-oncogene tyrosine-protein kinase Src (Homo sapiens) (UniProt P12931). The experiment in a line: Inhibition of human SRC (1 to 536 residues) assessed as enzyme activity at 1 uM using 33P ATP by radioactive filter binding assay. Set-up: scale not given: the % may be the effect or the level left.
Assay [6] concerns the target MAP/microtubule affinity-regulating kinase 3 (Homo sapiens) (UniProt P27448). The experiment in a line: Inhibition of human MARK3 (2 to 729 residues) assessed as enzyme activity at 1 uM using 33P ATP by radioactive filter binding assay. On the set-up: scale not given: the % may be the effect or the level left.
Assay [7] concerns the target T3, Protein kinase C zeta type (Homo sapiens) (UniProt Q05513).
T3 sequence (whole entry): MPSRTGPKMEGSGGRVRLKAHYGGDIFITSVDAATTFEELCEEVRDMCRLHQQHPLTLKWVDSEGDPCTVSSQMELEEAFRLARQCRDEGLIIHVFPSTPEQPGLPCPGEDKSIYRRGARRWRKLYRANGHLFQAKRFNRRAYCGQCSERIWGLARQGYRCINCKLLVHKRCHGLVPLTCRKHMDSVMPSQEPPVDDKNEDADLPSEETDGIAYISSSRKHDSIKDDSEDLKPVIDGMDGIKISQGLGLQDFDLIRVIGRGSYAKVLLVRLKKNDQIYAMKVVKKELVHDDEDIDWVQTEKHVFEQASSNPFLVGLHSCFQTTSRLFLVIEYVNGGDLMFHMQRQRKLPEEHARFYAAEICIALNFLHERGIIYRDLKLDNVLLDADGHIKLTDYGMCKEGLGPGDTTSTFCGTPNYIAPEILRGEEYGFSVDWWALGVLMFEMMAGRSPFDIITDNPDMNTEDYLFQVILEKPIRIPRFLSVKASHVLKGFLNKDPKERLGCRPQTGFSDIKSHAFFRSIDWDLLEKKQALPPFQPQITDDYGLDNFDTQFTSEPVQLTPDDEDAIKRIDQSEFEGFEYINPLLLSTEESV
Nature of the assay: Inhibition of human PKCzeta (2 to 592 residues) assessed as enzyme activity at 1 uM using 33P ATP by radioactive filter binding assay. Set-up: scale not given: the % may be the effect or the level left.

Sequence of Serine/threonine-protein kinase PAK 4 (Homo sapiens) (O96013 whole entry, looked up, the tested form may be a part, canonical isoform): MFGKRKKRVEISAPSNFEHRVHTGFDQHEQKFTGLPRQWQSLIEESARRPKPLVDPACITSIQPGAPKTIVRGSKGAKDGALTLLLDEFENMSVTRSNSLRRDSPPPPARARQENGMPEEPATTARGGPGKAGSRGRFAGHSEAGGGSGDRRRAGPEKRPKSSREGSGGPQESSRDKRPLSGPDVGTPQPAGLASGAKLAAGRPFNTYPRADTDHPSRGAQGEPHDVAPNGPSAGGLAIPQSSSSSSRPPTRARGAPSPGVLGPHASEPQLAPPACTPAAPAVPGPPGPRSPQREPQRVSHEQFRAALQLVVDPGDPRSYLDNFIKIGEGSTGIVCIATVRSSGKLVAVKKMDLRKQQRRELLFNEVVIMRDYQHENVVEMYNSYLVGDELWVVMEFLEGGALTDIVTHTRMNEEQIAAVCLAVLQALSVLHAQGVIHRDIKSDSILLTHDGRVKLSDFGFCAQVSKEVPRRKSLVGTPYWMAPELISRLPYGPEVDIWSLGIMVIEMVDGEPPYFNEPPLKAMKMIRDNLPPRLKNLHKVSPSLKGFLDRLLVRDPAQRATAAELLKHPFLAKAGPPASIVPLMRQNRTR
Sequence of Proto-oncogene tyrosine-protein kinase Src (Homo sapiens) (P12931 2-536 limits assumed): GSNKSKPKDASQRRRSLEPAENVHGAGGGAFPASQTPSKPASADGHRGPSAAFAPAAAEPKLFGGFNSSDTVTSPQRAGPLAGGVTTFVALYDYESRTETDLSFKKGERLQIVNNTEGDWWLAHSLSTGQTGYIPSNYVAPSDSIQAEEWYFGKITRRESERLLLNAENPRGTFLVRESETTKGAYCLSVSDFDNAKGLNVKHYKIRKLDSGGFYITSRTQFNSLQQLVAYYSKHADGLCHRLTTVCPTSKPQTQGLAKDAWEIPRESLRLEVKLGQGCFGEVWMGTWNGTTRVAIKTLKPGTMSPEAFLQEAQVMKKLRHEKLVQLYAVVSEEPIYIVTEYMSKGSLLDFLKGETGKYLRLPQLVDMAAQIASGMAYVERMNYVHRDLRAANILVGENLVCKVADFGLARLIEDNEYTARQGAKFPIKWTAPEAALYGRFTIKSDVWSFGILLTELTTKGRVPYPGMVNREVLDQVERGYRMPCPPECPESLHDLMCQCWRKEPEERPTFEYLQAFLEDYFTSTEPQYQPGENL
Sequence of MAP/microtubule affinity-regulating kinase 3 (Homo sapiens) (P27448 whole entry, looked up, the tested form may be a part): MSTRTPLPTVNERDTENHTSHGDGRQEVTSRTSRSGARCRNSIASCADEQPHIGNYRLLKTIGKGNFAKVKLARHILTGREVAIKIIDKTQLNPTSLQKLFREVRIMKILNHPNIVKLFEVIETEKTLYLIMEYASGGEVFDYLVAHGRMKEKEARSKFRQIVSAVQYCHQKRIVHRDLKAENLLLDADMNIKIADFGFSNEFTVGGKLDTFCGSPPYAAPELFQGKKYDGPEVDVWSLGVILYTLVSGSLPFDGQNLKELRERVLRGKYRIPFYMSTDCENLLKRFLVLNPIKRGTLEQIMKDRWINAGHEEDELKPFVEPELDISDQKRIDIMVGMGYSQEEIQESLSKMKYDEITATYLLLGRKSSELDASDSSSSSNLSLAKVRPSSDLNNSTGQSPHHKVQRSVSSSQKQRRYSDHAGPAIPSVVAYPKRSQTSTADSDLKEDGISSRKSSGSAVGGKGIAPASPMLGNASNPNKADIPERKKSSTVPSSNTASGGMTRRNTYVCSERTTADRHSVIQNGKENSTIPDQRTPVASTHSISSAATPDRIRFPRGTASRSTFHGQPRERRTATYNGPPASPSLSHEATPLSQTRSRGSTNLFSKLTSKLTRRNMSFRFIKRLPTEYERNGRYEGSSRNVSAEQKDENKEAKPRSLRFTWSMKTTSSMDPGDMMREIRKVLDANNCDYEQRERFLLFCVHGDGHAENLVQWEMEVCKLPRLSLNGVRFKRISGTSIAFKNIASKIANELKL
Sequence of Tyrosine-protein kinase CSK (Homo sapiens) (P41240 2-450 limits assumed): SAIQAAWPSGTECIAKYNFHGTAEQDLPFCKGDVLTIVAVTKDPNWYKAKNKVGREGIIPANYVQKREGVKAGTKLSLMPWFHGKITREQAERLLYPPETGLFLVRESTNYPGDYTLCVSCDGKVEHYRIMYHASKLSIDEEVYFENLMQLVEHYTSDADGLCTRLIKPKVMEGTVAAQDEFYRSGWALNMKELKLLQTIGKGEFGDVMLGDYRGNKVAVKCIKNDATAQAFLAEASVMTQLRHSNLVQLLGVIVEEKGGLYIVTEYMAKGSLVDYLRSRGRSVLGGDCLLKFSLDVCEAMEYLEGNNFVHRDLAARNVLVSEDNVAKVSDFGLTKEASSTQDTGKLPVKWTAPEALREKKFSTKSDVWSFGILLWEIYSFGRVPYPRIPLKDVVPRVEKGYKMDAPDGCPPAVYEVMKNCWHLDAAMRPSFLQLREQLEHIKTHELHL

Usually IC50 stands for the concentration that gives 50% inhibition. Turning to `CCCCc1cc(-c2c[nH]c3ncc(-c4cnn(C5CCNCC5)c4)cc23)nc(N)n1`, the Activity in assay [1] is -60%; in assay [3], -24%; in assay [4], -91%; in assay [5], -68%; in assay [6], -95%; in assay [7], -42%. Besides, 4 µM corresponded to half-maximal inhibition in assay [2] (IC50).
Take `CCc1cc(-c2c[nH]c3ncc(-c4cnn(C5CCNCC5)c4)cc23)nc(N)n1`: the Activity is -47% in assay [1]; 6% in assay [3]; -78% in assay [4]; -34% in assay [5]; -89% in assay [6]; -18% in assay [7].
In the case of `Nc1nccc(-c2c[nH]c3ncccc23)n1` [MERIOLIN 1], the Activity in assay [1] is -22%; in assay [3], 0%; in assay [4], -22%; in assay [5], -11%; in assay [6] it was -59%; in assay [7], -35%. This molecule also registered a 50% inhibitory concentration (IC50) in assay [2] greater than 10 µM.
Take `CCCCc1cc(-c2c[nH]c3ncccc23)nc(N)n1`: the Activity in assay [1] is 1%; in assay [3], -5%; in assay [4] it was -48%; in assay [5], 7%; in assay [6] it was -58%; in assay [7], -43%. The same molecule gave an IC50 in assay [2] greater than 10 µM.
